Test results from patent US12343328B2, “Dialkyl tryptamines and their therapeutic uses” (CAAMTECH, INC., priority 2020, dated 2025).

Test system: murine Head Twitch Response
Assay: murine Head Twitch Response (HTR)
Settings: Mus musculus, read-out: HTR ED50

SMILES	ED50
CN(C)CCc1c[nH]c2cccc(O)c12 [Psilocin]	0.54 µmol/kg
CN(C)CCc1c[nH]c2cccc(OP(=O)(O)O)c12 [Psilocybin]	1.02 µmol/kg
